Data published in patent publication US20240287080A1 (IDEAYA Biosciences Inc., priority 2021, published 2024).

Biological target: T1, Pol theta (1-899) (Homo sapiens, UniProt O75417)
T1 construct: Pol theta (1-899) (5 nM) in assay buffer
Assay: Pol theta ATPase activity, NADH oxidation-coupled enzymatic assay (ATPase NADH coupling: Standard Screening: hPolQ)
Type: biochemical
Conditions: Pol theta (1-899) 5 nM
Outline: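 NADH-coupled ATPase readout: 5 nM Pol theta (1-899) preincubated 15 min with 10-point compound series in Tris pH 7.80, KCl, MgCl2, DTT, BSA, Tween, glycerol, then 100 μM ATP, 300 nM 50-mer poly-dT ssDNA, NADH, PEP, LDH and PK added (stock levels). A340 followed 60 min; slopes fit four-parameter for IC50.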

[1] = NADH oxidation-coupled ATPase assay, compounds of Table 3

T1 sequence (O75417 1-899): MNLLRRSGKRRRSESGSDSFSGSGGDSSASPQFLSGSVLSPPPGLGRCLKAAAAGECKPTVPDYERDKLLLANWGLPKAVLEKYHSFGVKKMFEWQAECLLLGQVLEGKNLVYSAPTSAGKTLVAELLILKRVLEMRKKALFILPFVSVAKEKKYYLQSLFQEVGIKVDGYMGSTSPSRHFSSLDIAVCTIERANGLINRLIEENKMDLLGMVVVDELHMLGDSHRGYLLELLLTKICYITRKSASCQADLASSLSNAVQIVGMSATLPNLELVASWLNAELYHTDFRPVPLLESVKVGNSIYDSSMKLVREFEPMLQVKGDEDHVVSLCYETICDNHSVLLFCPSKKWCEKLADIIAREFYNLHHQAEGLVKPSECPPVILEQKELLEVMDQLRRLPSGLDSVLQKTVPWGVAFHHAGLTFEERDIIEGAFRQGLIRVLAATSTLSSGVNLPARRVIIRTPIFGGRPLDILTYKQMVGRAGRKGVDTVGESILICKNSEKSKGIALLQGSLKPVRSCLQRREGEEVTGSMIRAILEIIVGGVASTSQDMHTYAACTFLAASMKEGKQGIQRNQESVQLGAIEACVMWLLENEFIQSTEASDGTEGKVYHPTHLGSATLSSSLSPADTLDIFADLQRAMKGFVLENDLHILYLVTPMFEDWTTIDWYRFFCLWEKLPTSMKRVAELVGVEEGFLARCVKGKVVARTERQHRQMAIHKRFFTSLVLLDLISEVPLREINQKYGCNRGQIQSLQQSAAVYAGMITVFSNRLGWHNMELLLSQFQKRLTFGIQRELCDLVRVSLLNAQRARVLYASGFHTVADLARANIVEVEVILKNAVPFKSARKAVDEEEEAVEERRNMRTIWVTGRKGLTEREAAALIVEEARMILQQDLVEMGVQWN

Row | Compound | IC50 (Table 4, ATP, dT50 ssDNA) [nM] | IC50 [1] [nM] | further results
1 | CNC(=O)c1cncc(-c2cc(C)ncc2C(=O)Nc2nnc(OC)s2)c1 [Example 339, N3′-(5-methoxy-1,3,4-thiadiazol-2-yl)-N5,6′-dimethyl-[3,4′-bipyridine]-3′,5-dicarboxamide] | – | 1000 to 10000 | –
2 | COc1nnc(NC(=O)c2cnc(C)cc2-c2ccc3c(c2)COC3=O)s1 [Example 416, N-(5-methoxy-1,3,4-thiadiazol-2-yl)-6-methyl-4-(1-oxo-1,3-dihydro-2-benzofuran-5-yl)pyridine-3-carboxamide] | – | 1000 to 10000 | –
3 | COc1cnc(Cl)cc1-c1cc(C)ncc1C(=O)Nc1nnc(O[C@@H]2CCC23COC3)s1 (single isomer, unassigned) [Example 137] | – | – | IC50 (Table 5, ATP, dT50 ssDNA): ≤ 200 nM
4 | COc1nnc(NC(=O)c2cnc(C)cc2-c2ccccc2)s1 [Example 329, N-(5-methoxy-1,3,4-thiadiazol-2-yl)-6-methyl-4-phenylpyridine-3-carboxamide] | – | 1000 to 10000 | –
5 | COc1nnc(NC(=O)c2cnc(C)cc2-c2cccn3ncnc23)s1 [Example 123, 4-((1,2,4)triazolo(1,5-a)pyridin-8-yl)-N-(5-methoxy-1,3,4-thiadiazol-2-yl)-6-methylnicotinamide] | – | – | IC50 (Table 5, values given as bound, ATP, dT50 ssDNA): > 10000 nM
6 | COc1nnc(NC(=O)c2cnc(C)cc2-c2cccc(OC)c2F)s1 [Example 446, 4-(2-fluoro-3-methoxyphenyl)-N-(5-methoxy-1,3,4-thiadiazol-2-yl)-6-methylpyridine-3-carboxamide] | – | 1000 to 10000 | –
7 | COc1nnc(NC(=O)c2cnc(C)cc2-c2cnc(N3CCOCC3)nc2)s1 [Example 427, N-(5-methoxy-1,3,4-thiadiazol-2-yl)-6-methyl-4-[2-(morpholin-4-yl)pyrimidin-5-yl]pyridine-3-carboxamide] | – | 1000 to 10000 | –
8 | COc1nnc(NC(=O)c2cnc(C)cc2-c2ccc3c(c2)CNC3=O)s1 [Example 379, N-(5-methoxy-1,3,4-thiadiazol-2-yl)-6-methyl-4-(1-oxo-2,3-dihydro-1H-isoindol-5-yl)pyridine-3-carboxamide] | – | 1000 to 10000 | –
9 | COc1cnc(Cl)cc1-c1cc(C)ncc1C(=O)Nc1nnc(O[C@@H]2CC[C@H]2O)s1 (single isomer, unassigned) [Example 114] | – | – | IC50 (Table 5, ATP, dT50 ssDNA): ≤ 200 nM
10 | COc1nnc(NC(=O)c2cnc(C)cc2-c2cnc(C(F)(F)F)c(F)c2)s1 [Example 342, 5-fluoro-N-(5-methoxy-1,3,4-thiadiazol-2-yl)-6′-methyl-6-(trifluoromethyl)-[3,4′-bipyridine]-3′-carboxamide] | – | 1000 to 10000 | –
11 | COc1nnc(NC(=O)c2cnc(C)cc2-c2cccc(Cl)c2)s1 [Example 102, 4-(3-chlorophenyl)-N-(5-methoxy-1,3,4-thiadiazol-2-yl)-6-methylnicotinamide] | – | – | IC50 (Table 5, ATP, dT50 ssDNA): 200 to 500 nM
12 | COc1cnc(Cl)c(F)c1-c1cc(C)ncc1C(=O)Nc1nnc(O[C@H]2CC[C@H](OC)CC2)s1 (single isomer, unassigned) [Example 153, 2′-chloro-3′-fluoro-5′-methoxy-N-(5-(((1r,4r)-4-methoxycyclohexyl)oxy)-1,3,4-thiadiazol-2-yl)-6-methyl-(4,4′-bipyridine)-3-carboxamide] | – | – | IC50 (Table 5, ATP, dT50 ssDNA): ≤ 200 nM
13 | COc1cnc(C)c(F)c1-c1cc(C)ncc1C(=O)Nc1nnc(O[C@H]2CC[C@H](O)CC2)s1 [Example 202, 3′-fluoro-N-(5-(((1r,4r)-4-hydroxycyclohexyl)oxy)-1,3,4-thiadiazol-2-yl)-5′-methoxy-2′,6-dimethyl-(4,4′-bipyridine)-3-carboxamide] | – | – | IC50 (Table 5, ATP, dT50 ssDNA): ≤ 200 nM
14 | COc1nnc(NC(=O)c2cnc(C)cc2-c2cccc(O)c2)s1 [Example 452, 4-(3-hydroxyphenyl)-N-(5-methoxy-1,3,4-thiadiazol-2-yl)-6-methylpyridine-3-carboxamide] | – | 1000 to 10000 | –
15 | COc1nnc(NC(=O)c2cnc(C)cc2-c2ccnc(Cl)c2)s1 [Example 100, 2′-chloro-N-(5-methoxy-1,3,4-thiadiazol-2-yl)-6-methyl-(4,4′-bipyridine)-3-carboxamide] | – | – | IC50 (Table 5, ATP, dT50 ssDNA): 200 to 500 nM
16 | Cc1cc(-c2cc(Cl)ncc2OC(F)F)c(C(=O)Nc2nnc(O[C@@H]3CCC[C@H](O)C3)s2)cn1 (single isomer, unassigned) [Example 252] | – | ≤ 200 | –
17 | COc1cccc(F)c1-c1cc(C)ncc1C(=O)Nc1nnc(O)s1 [Example 3, 4-(2-fluoro-6-methoxyphenyl)-N-(5-hydroxy-1,3,4-thiadiazol-2-yl)-6-methylnicotinamide] | 1000 to 10000 | – | –
18 | COc1cnc(C)c(F)c1-c1cc(C)ncc1C(=O)Nc1nnc(OCCN(C)CC(F)(F)F)s1 [Example 258, 3′-fluoro-5′-methoxy-2′,6-dimethyl-N-(5-(2-(methyl(2,2,2-trifluoroethyl)amino)ethoxy)-1,3,4-thiadiazol-2-yl)-[4,4′-bipyridine]-3-carboxamide] | – | ≤ 200 | –

Further lines, with some results ahead:

Row | IC50 (Table 4, ATP, dT50 ssDNA) [nM] | IC50 [1] [nM] | Compound | further results
19 | ≤ 200 | – | COc1cnc(Cl)cc1-c1cc(C)ncc1C(=O)Nc1nnc(OCC(C)(C)O)s1 [Example 14, 2′-chloro-N-(5-(2-hydroxy-2-methylpropoxy)-1,3,4-thiadiazol-2-yl)-5′-methoxy-6-methyl-(4,4′-bipyridine)-3-carboxamide] | –
20 | 500 to 1000 | – | COc1nnc(NC(=O)c2cnc(C)cc2-c2cc(Cl)ncc2CO)s1 [Example 72, 2′-chloro-5′-(hydroxymethyl)-N-(5-methoxy-1,3,4-thiadiazol-2-yl)-6-methyl-(4,4′-bipyridine)-3-carboxamide] | –
21 | ≤ 200 | – | COc1nnc(NC(=O)c2cnc(C)cc2-c2cc(C)ncc2Cl)s1 [Example 41, 5′-chloro-N-(5-methoxy-1,3,4-thiadiazol-2-yl)-2′,6-dimethyl-(4,4′-bipyridine)-3-carboxamide] | –
22 | ≤ 200 | – | COc1cnc(Cl)cc1-c1cc(C)ncc1C(=O)Nc1nnc(OCC(C)(C)F)s1 [Example 19, 2′-chloro-N-(5-(2-fluoro-2-methylpropoxy)-1,3,4-thiadiazol-2-yl)-5′-methoxy-6-methyl-(4,4′-bipyridine)-3-carboxamide] | –
23 | – | 500 to 1000 | COc1nnc(NC(=O)c2cnc(C)cc2-c2cc(F)cnc2OC)s1 [Example 431, 5-fluoro-2-methoxy-N-(5-methoxy-1,3,4-thiadiazol-2-yl)-6′-methyl-[3,4′-bipyridine]-3′-carboxamide] | –
24 | ≤ 200 | – | COc1cnc(Cl)cc1-c1cc(C)ncc1C(=O)Nc1nnc(O[C@H]2CCOC2)s1 [Example 22, (S)-2′-chloro-5′-methoxy-6-methyl-N-(5-((tetrahydrofuran-3-yl)oxy)-1,3,4-thiadiazol-2-yl)-(4,4′-bipyridine)-3-carboxamide] | –
25 | – | ≤ 200 | COc1cnc(C)cc1-c1cc(C)ncc1C(=O)Nc1nnc(OC2CC=CC2)s1 [Example 240, N-(5-(cyclopent-3-en-1-yloxy)-1,3,4-thiadiazol-2-yl)-5′-methoxy-2′,6-dimethyl-[4,4′-bipyridine]-3-carboxamide] | –
26 | ≤ 200 | – | CCc1cc(-c2cc(C)ncc2C(=O)Nc2nnc(OC)s2)c(OC)cn1 [Example 44, 2′-ethyl-5′-methoxy-N-(5-methoxy-1,3,4-thiadiazol-2-yl)-6-methyl-(4,4′-bipyridine)-3-carboxamide] | –
27 | ≤ 200 | – | CCCOc1nnc(NC(=O)c2cnc(C)cc2-c2cc(Cl)ncc2OC)s1 [Example 37, 2′-chloro-5′-methoxy-6-methyl-N-(5-propoxy-1,3,4-thiadiazol-2-yl)-(4,4′-bipyridine)-3-carboxamide] | –
28 | ≤ 200 | – | COc1cnc(Cl)cc1-c1cc(C)ncc1C(=O)Nc1nnc(OC2CCCC2)s1 [Example 17, 2′-chloro-N-(5-(cyclopentyloxy)-1,3,4-thiadiazol-2-yl)-5′-methoxy-6-methyl-(4,4′-bipyridine)-3-carboxamide] | –
29 | ≤ 200 | – | COc1nnc(NC(=O)c2cnc(C)cc2-c2cc(Cl)ccc2OC)s1 [Example 9, 4-(5-chloro-2-methoxyphenyl)-N-(5-methoxy-1,3,4-thiadiazol-2-yl)-6-methylnicotinamide] | –
30 | ≤ 200 | – | COc1cnc(Cl)cc1-c1cc(C)ncc1C(=O)Nc1nnc(OC2CCS(=O)(=O)CC2)s1 [Example 25, 2′-chloro-N-(5-((1,1-dioxidotetrahydro-2H-thiopyran-4-yl)oxy)-1,3,4-thiadiazol-2-yl)-5′-methoxy-6-methyl-(4,4′-bipyridine)-3-carboxamide] | –
31 | – | ≤ 200 | COc1cnc(Cl)cc1-c1cc(C)ncc1C(=O)Nc1nnc(O[C@H]2CC[C@@]23CCOC3)s1 (racemic) [Example 292, rac-N-(5-(((1S,4S)-6-oxaspiro[3.4]octan-1-yl)oxy)-1,3,4-thiadiazol-2-yl)-2′-chloro-5′-methoxy-6-methyl-[4,4′-bipyridine]-3-carboxamide] | –
32 | – | 500 to 1000 | COc1ccc(OC)c(-c2cc(C)ncc2C(=O)Nc2nnc(OC)s2)c1 [Example 486, 4-(2,5-dimethoxyphenyl)-N-(5-methoxy-1,3,4-thiadiazol-2-yl)-6-methylnicotinamide] | –
33 | ≤ 200 | – | COc1cnc(Cl)cc1-c1cc(C)ncc1C(=O)Nc1nnc(OCC2CCOC2C)s1 (centres unmarked) [Example 74, 2′-chloro-5′-methoxy-6-methyl-N-(5-((2-methyltetrahydrofuran-3-yl)methoxy)-1,3,4-thiadiazol-2-yl)-(4,4′-bipyridine)-3-carboxamide] | –
34 | – | ≤ 200 | COc1cnc(Br)cc1-c1cc(C)ncc1C(=O)Nc1nnc(O[C@@H]2CCC[C@@H](O)C2)s1 [Example 284, 2′-bromo-N-(5-(((1R,3R)-3-hydroxycyclohexyl)oxy)-1,3,4-thiadiazol-2-yl)-5′-methoxy-6-methyl-[4,4′-bipyridine]-3-carboxamide] | –
35 | ≤ 200 | – | COc1nnc(NC(=O)c2cnc(C)cc2-c2cc(Cl)ncc2OC(F)F)s1 [Example 48, 2′-chloro-5′-(difluoromethoxy)-N-(5-methoxy-1,3,4-thiadiazol-2-yl)-6-methyl-(4,4′-bipyridine)-3-carboxamide] | –
